Laboratory results published in patent US5639777A, “1,4,5-triphenyl pyrazolyl compounds for the treatment of inflammation and inflammation-related disorders” (G.D. Searle & Co., priority 1996, dated 1997).

Assays:
[1] = test system: carrageenan-induced foot edema in rats; assay: Rat Carrageenan Foot Pad Edema Test; assay type: in vivo, Male Sprague-Dawley rats; conditions: @ 10 mg/kg body weight; oral; foot volume three hours after carrageenan injection
Experimental: The carrageenan foot edema test was performed with materials, reagents and procedures essentially as described by Winter, et al., (Proc. soc. Exm. Biol. Med., 111, 544 (1962)). Male Sprague-Dawley rats were selected in each group so that the average body weight was as close as possible. Rats were fasted with free access to water for over sixteen hours prior to the test. The rats were dosed orally (1 mL)with compounds suspended in vehicle containing 0.5% methylcellulose and 0.025% surfactant, or with vehicle alone. One hour later a subplantar injection of 0.1 mL of 1% solution of carrageenan/sterile 0.9% saline was administered and the volume of the injected foot was measured with a displacement plethysmometer connected to a pressure transducer with a digital indicator. Three hours after the injection of the carrageenan, the volume of the foot was again measured. The average foot swelling in a group of drug-treated animals was compared with that of a group of placebo-treated animals and the percentage inhibition of edema was determined (Otterness and Bliven, Laboratory Models for Testing NSAIDs, in Non-steroidal Anti-Inflammatory Drugs, (J. Lombardino, ed. 1985)).

[2] = compared with other common anti-inflammatory agents; cited from earlier work

In the case of `CS(=O)(=O)c1ccc(-c2c(-c3ccc(F)cc3)c(C(F)(F)F)nn2-c2ccccc2)cc1` [Example 1, 4-(4-Fluorophenyl)-5-[4-(methylsulfonyl)phenyl]-1-phenyl-3-(trifluoromethyl)pyrazole], the “% Inhibition (rat paw edema)” value [1] is reported as 20%.

For `O=C(O)Cc1c(-c2ccccc2)c(-c2ccccc2)nn1-c1ccccc1` [Isofezolac, 1,3,4-triphenyl-1H-pyrazole-5-acetic acid], the ulcerogenic [2] is listed as “as ulcerogenic as other common anti-inflammatory agents”.
